Reference: patent publication US20250099448A1, “HETEROCYCLIC COMPOUNDS” (Hoffmann-La Roche Inc., priority 2022, published 2025)

Target: T1, MAGL protein (Homo sapiens, UniProt Q99685)
T1 sequence (Q99685 1-303): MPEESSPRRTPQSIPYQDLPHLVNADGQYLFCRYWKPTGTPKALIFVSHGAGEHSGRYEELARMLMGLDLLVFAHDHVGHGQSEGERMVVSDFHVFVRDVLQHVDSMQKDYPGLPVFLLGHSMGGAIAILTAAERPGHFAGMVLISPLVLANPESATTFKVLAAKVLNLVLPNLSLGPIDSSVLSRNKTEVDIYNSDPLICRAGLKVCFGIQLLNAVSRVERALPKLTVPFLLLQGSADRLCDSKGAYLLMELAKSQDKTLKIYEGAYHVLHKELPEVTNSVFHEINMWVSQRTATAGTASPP
Assay: 2-AG assay: MAGL inhibitory activity by hydrolysis of 2-arachidonoylglycerol to arachidonic acid, followed by mass spectrometry
Type: biochemical
Settings: 8 μM 2-arachidonoylglycerol, 15 min preincubation, 30 min reaction at RT, RapidFire MS readout
Outline: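 MAGL was preincubated 15 min at RT with compound (12.5 to […], 3-fold steps) in 50 mM TRIS, 1 mM EDTA, 0.01% Tween-20, 2.5% DMSO. The reaction ran 30 min at RT with 8 μM 2-AG. Arachidonic acid was quantified by RapidFire SPE-MS/MS against a d8-arachidonic acid internal standard.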

Row | IC50 [nM] | Structure (SMILES)
1 | 0.01 | O=C(N1CC2(CC(Cc3ccc(F)cc3C(F)(F)F)C2)C1)N1CC2(CC(c3nnc(C4(O)CC4)[nH]3)C2)C1 [compound 34]
2 | 12 | O=C(N1CC2(CC(Cc3ncc(Cl)cc3F)C2)C1)N1CC2(CC(c3nc(C4CC(F)(F)C4)n[nH]3)C2)C1 [compound 737]
3 | 0.69 | CP(C)(=O)Cc1ccc(C2CN(C(=O)N3CC4(CC(c5nnc(C6CC6)[nH]5)C4)C3)C2)cc1 [compound 381]
4 | 2990 | O=C(N1CC2(CC(Cc3cc(C(F)(F)F)ccn3)C2)C1)N1CC2(CC(c3ncn[nH]3)C2)C1 [compound 985]
5 | 0.29 | O=C(N1CC2(CC(c3nnc(C4CC4)[nH]3)C2)C1)N1CC2(CC(c3ccc(C(F)(F)F)cc3F)C2)C1 [compound 938]
6 | 23.9 | O=C(N1CCC(CNS(=O)(=O)c2ccc(OC(F)(F)F)cc2)CC1)N1CC2(CC(c3nnc(C4CC4)[nH]3)C2)C1 [compound 251]
7 | 2.5 | O=C(N1CC2(CC(Cc3ccc(F)cc3C(F)(F)F)C2)C1)N1CC2(CC(c3nc(C4CC(F)(F)C4)n[nH]3)C2)C1 [compound 468]
8 | 3.87 | O=C(N1CC2(CCC(Cc3ccc(Cl)cn3)CC2)C1)N1CC2(CC(c3nnc(C4(O)CC4)[nH]3)C2)C1 [compound 139]
9 | 8.08 | O=C(N1CC(C23CC(c4ccc(F)cc4)(C2)C3)C1)N1CC2(CC(c3nc(C4(O)CC4)n[nH]3)C2)C1 [compound 674]
10 | 83.8 | O=C(N1CC2(CC(c3nc(C4CC4)n[nH]3)C2)C1)N1CC2(CN(Cc3ccnn3CC(F)(F)F)C2)C1 [compound 717]
11 | 0.34 | O=C(N1CC(C23CC(Nc4cnc(C(F)(F)F)cn4)(C2)C3)C1)N1CC2(CC(c3nc(C4CC4)n[nH]3)C2)C1 [compound 699]
12 | 0.07 | O=C(N1CC2(CC(Cc3cc(C(F)(F)F)n(CC(F)(F)F)n3)C2)C1)N1CC2(CC(c3nc(C4CC4)n[nH]3)C2)C1 [compound 793]
13 | 150 | O=C(N1CC2(CC(c3nnc(C4CCC4)[nH]3)C2)C1)N1CC2(CN(Cc3ccc(F)cc3F)C2)C1 [Example 158, [6-(5-cyclobutyl-4H-1,2,4-triazol-3 yl)-2-azaspiro[3.3]heptan-2-yl]-[6-[(2,4-difluorophenyl)methyl]-2,6-diazaspiro[3.3]heptan-2-yl]methanone]
14 | 0.96 | O=C(N1CC2(CC(c3nc(C4CC4)n[nH]3)C2)C1)N1CC2(CC(C(F)(F)c3cnc(C(F)(F)F)cn3)C2)C1 [compound 944]
15 | 3.46 | N#Cc1cc(OC2CC3(C2)CN(C(=O)N2CC4(CC(c5nc(C6CC6)n[nH]5)C4)C2)C3)ccc1C(F)(F)F [compound 499]
16 | 4.55 | CCn1nc(C(F)(F)F)cc1CN1CC2(C1)CN(C(=O)N1CC3(CC(c4nc(C5CC5)n[nH]4)C3)C1)C2 [compound 553]
17 | 57.1 | O=C(N1CC(C23CC(S(=O)(=O)c4ccc(C(F)(F)F)cc4)(C2)C3)C1)N1CC2(CC(c3nc(C4CC4)n[nH]3)C2)C1 [compound 722]
18 | 41.5 | O=C(N1CCC(CNS(=O)(=O)c2ccc(C(F)(F)F)cc2)CC1)N1CC2(CC(c3nnc(C4CC4)[nH]3)C2)C1 [compound 250]
19 | 4.19 | O=C(N1CC2(CC(Cc3cccc(S(=O)(=O)C(F)(F)F)c3)C2)C1)N1CC2(CC(c3nc(C4COC4)n[nH]3)C2)C1 [compound 728]
20 | 0.34 | CS(=O)(=O)c1cc(CC2CC3(C2)CN(C(=O)N2CC4(CC(c5nc(C6CC6)n[nH]5)C4)C2)C3)cc(C(F)(F)F)c1 [compound 809]
21 | 9.81 | O=C(N1CC2(CCC(S(=O)(=O)c3ccc(C(F)(F)F)cc3)CC2)C1)N1CC2(CC(c3nc(C4(O)CC4)n[nH]3)C2)C1 [compound 550]
22 | 21.9 | O=C(N1CC(c2cnc(C3(C(F)(F)F)CC3)nc2)C1)N1CC2(CC(c3nnc(C4CC4)[nH]3)C2)C1 [compound 235]
23 | 81.1 | O=C(N1CC2(CC(c3nc(C4CC4)n[nH]3)C2)C1)N1CC2(CN(Cc3ccn(CCC(F)(F)F)n3)C2)C1 [compound 972]

Row | IC50 [nM] | Structure (SMILES)
24 | 0.4 | O=C(N1CC2(CC(Cc3cnn(C(F)(F)F)c3)C2)C1)N1CC2(CC(c3nc(C4CC4)n[nH]3)C2)C1 [compound 401]
25 | 6.67 | O=C(N1CC2(CC(c3nc(C4(F)CC4)n[nH]3)C2)C1)N1CC2(CN(Cc3nc(C(F)(F)F)cs3)C2)C1 [compound 643]
26 | 3.09 | CP(C)(=O)c1ccc(CC2CC3(C2)CN(C(=O)N2CC4(CC(c5nc(C6CC6)n[nH]5)C4)C2)C3)c(F)c1 [compound 462]
27 | 9.79 | O=C(N1CC2(CCC(Cc3ccc(OC(F)F)nc3)CC2)C1)N1CC2(CC(c3nnc(C4(O)CC4)[nH]3)C2)C1 [compound 146]
28 | 0.57 | O=C(N1CC(c2ccc(S(=O)(=O)C(F)(F)F)cc2)C1)N1CC2(CC(c3nnc(C4CC4)[nH]3)C2)C1 [compound 243]
29 | 0.44 | COc1cc(C(F)(F)F)ccc1COC1CN(C(=O)N2CC3(CC(c4nnc(C5CC5)[nH]4)C3)C2)C1 [compound 307]
30 | 1790 | CS(=N)(=O)c1ccc(CC2CC3(C2)CN(C(=O)N2CC4(CC(c5nc(C6CC(F)(F)C6)n[nH]5)C4)C2)C3)cc1 (stereo not drawn) [compound 976]
31 | 0.23 | O=C(N1CC(c2ccc(NC3(C(F)(F)F)CC3)cc2)C1)N1CC2(CC(c3nnc(C4CC4)[nH]3)C2)C1 [compound 274]
32 | 3.89 | O=C(N1CC(c2ccc(C3(C(F)(F)F)CC3)cc2)C1)N1CC2(CC(c3nnc([C@H](O)C(F)(F)F)[nH]3)C2)C1 (single isomer, unassigned) [compound 230]
33 | 1310 | CS(=O)(=O)c1cc(C(F)(F)F)ccc1CC1CC2(C1)CN(C(=O)N1CC3(CC(c4ncn[nH]4)C3)C1)C2 [compound 633]
34 | 0.97 | CC(C)(C)Cc1nnc(C23CC(C4CN(C(=O)N5CC6(CC(c7nnc(C8CC8)[nH]7)C6)C5)C4)(C2)C3)o1 [compound 343]
35 | 15.2 | CS(=O)(=O)c1cccc(CC2CC3(C2)CN(C(=O)N2CC4(CC(c5nnc(C6CCC6)[nH]5)C4)C2)C3)c1 [compound 17]
36 | 26.3 | O=C(N1CC2(CCC(NS(=O)(=O)C3CCC(F)(F)CC3)CC2)C1)N1CC2(CC(c3nnc(C4CC4)[nH]3)C2)C1 [compound 358]
37 | 1.45 | N#Cc1ccc(CC2CC3(C2)CN(C(=O)N2CC4(CC(c5nc(C6(O)CC6)n[nH]5)C4)C2)C3)cc1C(F)(F)F [compound 629]
38 | 40.9 | CC(C)(C)c1c[nH]c(CN2CC3(C2)CN(C(=O)N2CC4(CC(c5nc(C6CC6)n[nH]5)C4)C2)C3)n1 [compound 659]
39 | 0.08 | Cn1ncc(CC2CC3(C2)CN(C(=O)N2CC4(CC(c5nc(C6(F)CC6)n[nH]5)C4)C2)C3)c1C(F)(F)F [compound 475]
40 | 0.13 | O=C(N1CC2(CC(Cc3ccc(OC(F)(F)F)cn3)C2)C1)N1CC2(CC(c3nnc(C4CC4)[nH]3)C2)C1 [compound 8]
41 | 0.05 | CC(C)(C)Cc1ccc(C2CN(C(=O)N3CC4(CC(c5nnc(C6CC6)[nH]5)C4)C3)C2)cn1 [compound 299]
42 | 195 | CC(C)(C)Cc1nnc(C23CC(C4CCN(C(=O)N5CC6(CC(c7nc(C8(O)CC8)n[nH]7)C6)C5)CC4)(C2)C3)o1 [compound 498]
43 | 0.21 | Cn1cc(-c2ccc(C3CN(C(=O)N4CC5(CC(c6nc(C7(O)CC7)n[nH]6)C5)C4)C3)cc2)c(C(F)(F)F)n1 [compound 823]
44 | 1770 | CS(=O)(=O)c1ccc(-c2ccc(C3CN(C(=O)N4CC5(CC(c6ncn[nH]6)C5)C4)C3)cc2)c(Cl)c1 [compound 981]
45 | 0.08 | Cc1cc(C(F)(F)F)cnc1OC1CC2(CCN(C(=O)N3CC4(CC(c5nc(C6CC6)n[nH]5)C4)C3)CC2)C1 [Example 836]
